From patent US20190015335A1, “HEPATOPROTECTIVE PARTICLES AND SYSTEMS AND METHODS OF USE THEREOF” (South Dakota Board of Regents, priority 2017, published 2019)

Key:
[1] = test system: caspase 3 in liver tissues; experiment: Western blot of pro-caspase 3 and active caspase 3 in liver tissues (DTIC); assay type: in vivo, mice; settings: DTIC 120 mg per kg, 4 cycles, FIG. 18
Protocol: (§1) Mice bearing B16F1 tumor were intravenously administered through the tail vein in different groups of eight: (1) pretreatment with PLGA-SBN (corresponding to 10 mg SBN per kg of mouse), followed by dacarbazine (DTIC) on the next day at a dose of 120 mg per kg mouse; (2) pretreatment with SBN (10 mg per kg), followed by DTIC on the next day at a dose of 120 mg per kg mouse; (3) PBS, followed by DTIC on the next day at a dose of 120 mg per kg mouse; (4) pretreatment with plain PLGA and free (non-encapsulated) SBN (10 mg per kg of mouse), followed by PBS on the next day; and (5) PBS injected at both days (once per day). Liver and blood samples were collected and analyzed to identify liver damage and morphology.

[2] = test system: bilirubin in blood serum; experiment: Bilirubin concentration in blood serum of mice bearing B16F1 tumor (DTIC); assay type: in vivo; settings: DTIC 120 mg per kg, 4 cycles, FIG. 17
Protocol: as §1

[3] = test system: alanine aminotransferase (ALT) activity in blood serum; experiment: ALT activity in blood serum of mice bearing B16F1 tumor (DTIC); assay type: in vivo; settings: DTIC 120 mg per kg, 4 cycles, FIG. 16
Protocol: as §1

[4] = test system: GST activity in AML12 cells; experiment: GST activity assay in AML12 cells; assay type: cell-based, mouse; settings: 24 and 48 hours, 10 μM SFN, FIG. 4
Protocol: The effects of SFN (10 μM), MIL-88A MOF loaded with SFN (denoted as MIL-88A-SFN, 10 μM SFN final concentration), or a corresponding amount of unloaded MIL-88A MOF on the GST activity in AML12 cells were measured at 12, 24, or 48 hours after the treatment. The GST activity assay was performed in the presence of glutathione and 1-chloro-2,4-dinitrobenzene (a GST substrate). Measurements were performed in quadruplicate.

[5] = test system: alanine aminotransferase (ALT) activity in blood serum; experiment: ALT activity in blood serum of mice bearing B16F1 tumor (DOX); assay type: in vivo
Protocol: (§2) Mice bearing a B16F1 tumor were intravenously administered through the tail vein in different groups of eight: (1) pretreatment with 25 mg of MIL-88A-SFN per kg of mouse at day 0 (corresponding to 3 mg SFN per kg of mouse according to the loading capacity of SFN in MIL-88A), followed by DOX at day 1 at 10 mg per kg of mouse; (2) pretreatment with SFN at 3 mg per kg of mouse at day 0, followed by DOX at day 1 at 10 mg per kg of mouse; (3) PBS injected at day 0, followed by DOX at day 1 at 10 mg per kg of mouse; and (4) PBS injected at both day 0 and day 1. Liver and blood samples were collected and analyzed to identify liver damage and morphology.

[6] = test system: GSTP1, GSTA3 and NQO1 in AML12 cells; settings: 10 μM SFN, FIG. 3
Protocol: To validate the protective effect of SFN on a mouse hepatocyte cell line AML12, the expression levels of two glutathione-S-transferase (GST) isoforms, P1 and A3 (denoted as GSTP1 and GSTA3, respectively) and NAD(P)H:quinone oxidoreductase (NQO1), were quantified using western blot analysis after incubating the AML12 cells with SFN for 12, 24, and 36 hours. Beta-actin was used as a loading control.

[7] = test system: caspase 3/7 in liver tissues; experiment: Caspase 3/7 activity in liver tissues of mice bearing B16F1 tumor (DOX); assay type: in vivo
Protocol: as §2

[8] = test system: caspase 3/7 and caspase 9 in AML12 cells; experiment: Caspase 3/7 and caspase 9 activity in AML12 cells after doxorubicin; assay type: cell-based, mouse; settings: FIG. 6
Protocol: (§3) MTT assay was performed to quantify AML12 cell survival after 24-hour exposure to 10 μM doxorubicin (DOX). The cells were pretreated with SFN or with MIL-88A-SFN. Control cells include those incubated with DOX without pretreatment, those incubated with MIL-88A-SFN alone without incubation with DOX, and those incubated with phosphate buffered saline (PBS). The activities of caspases and CYP1A1/CYP1B1 of these cells were also measured.

[9] = test system: GSTP1 and GSTA3 in B16F1 melanoma tumor tissues; experiment: Western blot of GST expression in tumor tissues of mice bearing B16F1 tumor; assay type: in vivo; settings: i.v., day 1 and day 2, FIG. 8B
Protocol: Mice bearing B16F1 tumor were intravenously administered with SFN or MIL-88A-SFN at a dose of 10 mg SFN per kg animal, through the tail vein in groups of eight. The expression levels of GSTP1 and GSTA3 in the liver and tumor tissues were measured by western blot at 24 and 48 h following the intravenous administration. Tissues from the groups of mice treated with PBS or MIL-88A were also analyzed.

[10] = test system: AML12 cells; experiment: MTT assay of AML12 cell survival after doxorubicin; assay type: cell-based, mouse; settings: FIG. 5
Protocol: as §3

[11] = test system: CYP1A1/CYP1B1 in liver tissues; experiment: CYP1A1/CYP1B1 activity in liver tissues of mice bearing B16F1 tumor (DOX); assay type: in vivo
Protocol: as §2

[12] = test system: CYP1A1/CYP1B1 in AML12 cells; experiment: CYP1A1/CYP1B1 activity in AML12 cells after doxorubicin; assay type: cell-based, mouse; settings: FIG. 7
Protocol: as §3

[13] = test system: liver tissues; experiment: Morphological microscopic analysis of liver tissues (DOX); assay type: in vivo, mice
Protocol: as §2

[14] = test system: B16F1 tumor; experiment: Tumor volume in mice bearing B16F1 tumor, DOX with or without pretreatment; assay type: in vivo; settings: DOX 10 mg per kg i.v. at day 1, with or without pretreatment, vs PBS only, FIG. 9
[15] = pretreatment then 10 μM DOX 24 h

Which results are given for `CN(C)/N=N/c1[nH]cnc1C(N)=O` [DTIC, dacarbazine]?
caspase 3 activation in liver tissues [1]: induced caspase 3 activation; bilirubin concentration in blood serum [2]: induced an upregulation; ALT activity in blood serum [3]: induced an upregulation

`C[S+]([O-])CCCCN=C=S` (stereo not shown) [SFN, sulforaphane] was tested. Which GST activity [4] did it give?
The GST activity was “equaled the GST activity in the cells treated with SFN-loaded MIL-88A”.

What about the “DOX-induced upregulation of ALT activity after pretreatment” value ([5]; 3 mg SFN per kg day 0, DOX 10 mg per kg day 1, FIG. 10) of the same compound?
The value was “attenuated the upregulation”.

And the “expression of phase 2 enzymes GSTP1 and GSTA3” value ([6]; 24 h, vs untreated cells)?
Its value is “upregulation”.

And the “expression of NQO1” value [6]?
Its value is “enhanced expression”.

And the “DOX-induced upregulation of liver caspase activity after pretreatment” value ([7]; 3 mg SFN per kg day 0, DOX 10 mg per kg day 1, FIG. 11)?
Its value is “but not SFN, attenuated the upregulation”.

And the “caspase activity after pretreatment” value [8, 15]?
The value was “significantly decreased”.

What about the “GST expression in B16F1 melanoma tumor tissues” value [9] of the same compound?
The value was “neither SFN nor MIL-88A-SFN strongly affected”.

And the “apoptosis / cell survival after pretreatment” value [10, 15]?
Its value is “significantly decreased apoptosis”.

And the “DOX-induced upregulation of liver CYP1A/CYP1B activity after pretreatment” value ([11]; 3 mg SFN per kg day 0, DOX 10 mg per kg day 1, FIG. 12)?
The value was “but not SFN, attenuated the upregulation”.

And the “DOX-induced upregulation of CYP1A1/CYP1B1 after pretreatment” value [12, 15]?
Its value is “suppressed the upregulation”.

What about the “DOX-induced liver pathology after pretreatment” value ([13]; 3 mg SFN per kg day 0, DOX 10 mg per kg day 1) of the same compound?
Its value is “attenuated the aforementioned symptoms of hepatotoxicity”.

What does the source list for `COc1cccc2c1C(=O)c1c(O)c3c(c(O)c1C2=O)C[C@@](O)(C(=O)CO)C[C@@H]3O[C@H]1C[C@H](N)[C@H](O)[C@H](C)O1` [DOX, doxorubicin]?
ALT activity in blood serum ([5]; DOX 10 mg per kg i.v., FIG. 10): induced an upregulation; caspase activity in the liver tissues ([7]; DOX 10 mg per kg i.v., FIG. 11): induced an upregulation; caspase activity ([8]; 10 μM DOX alone 24 h): highest caspase activity; tumor volume [14]: lower tumor volumes up to at least 9 days; cell survival rate ([10]; 10 μM DOX alone 24 h): lowest survival rate; CYP1A/CYP1B activity in the liver tissues ([11]; DOX 10 mg per kg i.v., FIG. 12): induced an upregulation; level of CYP1A1/CYP1B1 ([12]; 10 μM DOX 24 h): induced an increase; liver morphology (hepatotoxicity) ([13]; DOX 10 mg per kg i.v.): induced moderate cholestasis, focal necrosis, and mononuclear infiltration of sinusoids
